Results from patent publication US20130079345A1, “[…] ACTIVE DISUBSTITUTED TRIAZINE DERIVATIVES” (BAYER INTELLECTUAL PROPERTY GMBH, priority 2010, published 2013).
pIC50: −log10 of the molar value. Structures can show the parent of a compound that is named as a salt.

What was measured:
H460 cells = assay: Cell viability, H460 cells; type: cell-based, human
Procedure: (§1) HeLa- or MDAMB468-Cells or MATU ADR, H460, DU145, CACO-2 or B16F10 cells were maintained in RPMI 1640 or McCoy's 5A cell culture medium+glutamine (PAN Biotech GmbH, Aidenbach, Germany; order no. P04-22100; P04-05500) supplemented with 10% fetal calf serum “Gold” (PAA Laboratories GmbH, Pasching, Austria; order no. A15-151) and grown at 37° C., 5% CO2. For the cell viability assay, cells were seeded with a density of 400 (Hela cells, DSMZ Braunschweig order no. ACC57) or 800 (MDAMB468 cells, ATCC order no. HTB-132) per well in 25 μL in 384-well plates (Greiner Bio-One, Frickenhausen, Germany; order no. 781080). After overnight incubation at 37° C./5% CO2, 25 nL or 75 nL compound were added to each sample well by using BIOMEK FXP Laboratory Automation Workstation (Beckman Coulter, USA). Wells with cells and 0.1% or 0.3% DMSO in culture medium were used as positive controls, wells with cells and 10 μM staurosporine in culture medium were used as negative controls. The cells were incubated with the compounds for 72 h at 37° C./5% CO2. For measurement of cell viability […] Cell Titer Glo reagent (Promega, Madison, USA; order no. G7573), 1:2 diluted with cell culture medium, was added to each well. The 384well-plates were placed for 2 min on an orbital microplate shaker and incubated for further 10 min at room temperature to stabilize the luminescence signal. Luminescence was measured by Envision Plate Reader (Perkin Elmer, USA). EC50 values were calculated with the software Excel Fit (IDBS, Guildford, UK) from 3-fold dilution series comprising at least 8 concentrations in duplicates.
(§2) Cultivated tumour cells (NCl-H460, human non-small cell lung carcinoma cells, ATCC HTB-177; DU 145, hormone-independent human prostate carcinoma cells, ATCC HTB-81; HeLa-MaTu, human cervical carcinoma cells, EPO-GmbH, Berlin; HeLa-MaTu-ADR, multidrug-resistant human cervical carcinoma cells, EPO-GmbH, Berlin; HeLa human cervical tumour cells, ATCC CCL-2; Caco-2 human colorectal carcinoma, ATCC HTB-37; B16F10 mouse melanoma cells, ATCC CRL-6475) were plated at a density of 5,000 cells/well (DU145, HeLa-MaTu-ADR), 3,000 cells/well (NCl-H460, HeLa-MaTu, HeLa), 1,500 cells/well (Caco-2), or 1,000 cells/well (B16F10) in a 96-well multititer plate in 200 μL of their respective growth medium supplemented with 10% fetal calf serum. After 24 hours, the cells of one plate (zero-point plate) were stained with crystal violet (see below), while the medium of the other plates was replaced by fresh culture medium (200 μl), to which the test substances were added in various concentrations (0 μM as well as in the range of 0.001 to 10 μM; the final concentration of the solvent dimethyl sulfoxide was 0.5%). The cells were incubated in the presence of test substances for 4 days. Cell proliferation was determined by staining the cells with crystal violet: The cells were fixed by adding 20 μl/measuring point of an 11% glutaric aldehyde solution at room temperature for 15 minutes. After three washing cycles of the fixed cells with water, the plates were dried at room temperature. […] The extinction was determined by photometry at a wavelength of 595 nm. The change of cell number, in percent, was calculated by normalization of the measured values to the extinction values of the zero-point plate (equivalent to 0%) and the extinction of the untreated (0 μm) cells (equivalent to 100%). The IC50 values were determined by means of a 4 parameter fit using the company's own software.

B16F10 cells = assay: Cell viability, B16F10 cells; type: cell-based, mouse
Procedure: as §1, §2

DU145 cells = assay: Cell viability, DU145 cells; type: cell-based, human
Procedure: as §1, §2

| Structure (SMILES) | pIC50 (H460 cells; Homo sapiens, NCI-H460) | pIC50 (B16F10 cells; Mus musculus, B16-F10) | pIC50 (DU145 cells; Homo sapiens, DU-145) | pIC50 (H460 cells; hydrochloride) | pIC50 (B16F10 cells; hydrochloride) | pIC50 (DU145 cells; hydrochloride) |
| --- | --- | --- | --- | --- | --- | --- |
| COc1cc(F)ccc1-c1ncnc(Nc2cccc(CS(N)(=O)=O)c2)n1 [Compound B2, 3-[(4-(4-Fluoro-2-methoxyphenyl)-1,3,5-triazin-2-yl)amino]benzenemethanesulfonamide] | 5.89 | 5.80 | 5.82 |  |  |  |
| NS(=O)(=O)Cc1cccc(Nc2ncnc(-c3ccccc3OCc3ccccc3)n2)c1 [B13′, 3-[(4-(2-Benzyloxyphenyl)-1,3,5-triazin-2-yl)amino]benzenemethanesulfonamide trifluoroacetic acid salt] | 6.49 | 6.49 | 6.48 |  |  |  |
| COc1ccccc1-c1ncnc(Nc2cccc(CS(N)(=O)=O)c2)n1 [B1′, 3-[(4-(2-Methoxyphenyl)-1,3,5-triazin-2-yl)amino]benzenemethanesulfonamide trifluoroacetic acid salt] | 5.46 | 5.36 | 5.42 |  |  |  |
| COc1cc(F)ccc1-c1ncnc(Nc2cccc(CS(N)(=O)=O)c2)n1 [B2′, 1-(3-{[4-(4-fluoro-2-methoxyphenyl)-1,3,5-triazin-2-yl]amino}phenyl)methanesulfonamide hydrochloride] |  |  |  | 5.82 | 5.96 | 6.00 |
| COc1ccccc1-c1ncnc(Nc2cccc(S(N)(=O)=O)c2)n1 [C1′, 3-[(4-(2-Methoxyphenyl)-1,3,5-triazin-2-yl)amino]benzenesulfonamide trifluoroacetic acid salt] | 5.96 | 6.00 | 6.00 |  |  |  |
